Assay results taken from patent publication US9540351B2, “Pharmaceutically acceptable salts of 3,5-diaminopyrazole kinase inhibitors” (AXIKIN PHARMACEUTICALS, INC., priority 2013, dated 2017).
Read-outs that look alike come from different tables or passages of the source.

Columns and labels:
[1] = molecular target: T1, kinase domain protein of RC kinase (Homo sapiens, UniProt Q56UN5); experiment: Enzymatic assay for kinase inhibitory activity (Crebtide substrate, Lance readout); assay type: biochemical; settings: free base compounds, inhibition of RC kinase activity at 1 μM
T1 sequence (Q56UN5 1061-1324 limits assumed): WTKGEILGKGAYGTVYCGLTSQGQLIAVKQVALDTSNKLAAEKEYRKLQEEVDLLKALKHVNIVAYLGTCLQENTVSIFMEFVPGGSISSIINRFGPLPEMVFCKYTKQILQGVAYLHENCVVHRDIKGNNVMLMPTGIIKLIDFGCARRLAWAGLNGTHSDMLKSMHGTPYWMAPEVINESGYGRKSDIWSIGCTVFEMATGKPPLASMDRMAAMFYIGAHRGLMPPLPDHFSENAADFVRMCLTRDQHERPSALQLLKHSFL
Procedure: Solutions of a test compound, Crebtide (a substrate), a kinase, and ATP were prepared using 1×MAPK Buffer (50 mM HEPES, 1 mM EGTA, […], 10 mM MgCl2, 2 mM DTT, and 0.01% Tween 20).
To each well, the test compound (1 μL) was first added (in duplicate) to reach a final concentration of 1 μM or 1×IC50 of the compound. The kinase (5 μL) was then added to each well to reach a final concentration of […] for the kinase domain or […] for the full-length domain. Each plate included a positive and negative controls in duplicate wells. Crebtide (2.5 μL) was then added to each well in duplicate to reach a final concentration of 50 nM. If the full-length kinase was used, the plates were incubated for 45 min at room temperature before proceeding further. ATP (2.5 μL) was added to each well to reach a final concentration of 1 μM for the kinase domain and 3 μM for the full-length.
After the addition of ATP, the plates were incubated for 45 min at room temperature. During the incubation, an EDTA solution (40 mM) and anti-Crebtide ([…]) were prepared. Additionally, a detection buffer stock solution was diluted ten fold before use.
After the incubation, the anti-Crebtide (5 μL) and EDTA (5 μL) were added to each well to reach their final concentrations of […] and 10 mM, respectively. The plates were allowed to develop at room temperature for 45 min. The plates were then read at 665 nm and 615 nm using Perkin Elmer Lance machine.
As will be appreciated by those skilled in the are, the activity of a particular salt provided herein will be the same as the activity for the parent free-base compound.

[2] = Solubility assessment of salts in water; assay type: physicochemical; settings: thermodynamic from solid, read-out: Aqueous Solubility
Procedure: Solubility assessment: A preweighed amount of powder of a salt was treated with water to target a nominal concentration of 10 mg/mL. If a clear solution was obtained, then the solubility was noted as ≧10 mg/mL. If a suspension was obtained, additional water was added to target a nominal concentration of 5 mg/mL. If still a suspension after the addition of water, additional water was added to target a lower nominal concentration. If a suspension was still observed at a nominal concentration of 0.1 mg/mL, the suspension was filtered through a 0.4 micron filter, and the filtrate was analyzed by RP-HPLC to ascertain the solubility range of the salt.

Row | SMILES | inhibition at 1 µM [1] | solubility ([2]; Free base) | solubility ([2]; HCl salt) | solubility ([2]; HBr salt) | solubility ([2]; Phosphoric acid salt) | solubility ([2]; Sulfuric acid salt) | solubility ([2]; Trifluoroacetic acid salt) | solubility ([2]; acetic acid salt) | solubility ([2]; camphorsulfonic acid salt) | solubility ([2]; formic acid salt) | solubility ([2]; Methane sulfonic acid salt) | solubility ([2]; p-toluenesulfonic acid salt) | solubility ([2]; tartaric acid salt)
1 | NC(=O)C1=C(NCc2ccc(O)cc2)N=NC1Nc1cccc(Cl)c1 (stereo not drawn) [Compound 1, 3-((3-chlorophenyl)amino)-5-((4-hydroxybenzyl)amino)-3H-pyrazole-4-carboxamide] | ≥ 50% | < 40 µg/mL | > 63 µg/mL |  |  |  |  |  |  |  |  |  | 
2 | CN1CCN(c2ccc(NC3N=NC(NCc4ccc(O)cc4)=C3C(N)=O)cc2)CC1 (stereo not drawn) [Compound 2, 5-((4-hydroxybenzyl)amino)-3-((4-(4-methylpiperazin-1-yl)phenyl)amino)-3H-pyrazole-4-carboxamide] | ≥ 50% | < 40 µg/mL | > 1000 µg/mL |  |  |  |  |  |  |  |  |  | 
3 | NC(=O)C1=C(NCc2ccc(O)cc2)N=NC1Nc1ccc(CN2CCOCC2)cc1 (stereo not drawn) [Compound 3, 5-((4-hydroxybenzyl)amino)-3-((4-(morpholinomethyl)phenyl)amino)-3H-pyrazole-4-carboxamide] | ≥ 50% | < 40 µg/mL | > 500 µg/mL |  |  |  |  |  |  |  |  |  | 
4 | NC(=O)c1c(Nc2ccc(N3CCOCC3)cc2)n[nH]c1NCc1ccc(O)cc1 [Compound 4, 5-((4-hydroxybenzyl)amino)-3-((4-morpholinophenyl)amino)-3H-pyrazole-4-carboxamide] | ≥ 50% | < 100 µg/mL | > 10000 µg/mL | > 10000 µg/mL | < 200 µg/mL | > 2000 µg/mL | < 200 µg/mL | < 500 µg/mL | < 200 µg/mL | < 500 µg/mL |  |  | 
5 | NC(=O)C1=C(NCc2ccc(O)cc2)N=NC1Nc1ccc(N2CCOCC2)nc1 (stereo not drawn) [Compound 5, 5-((4-hydroxybenzyl)amino)-3-((6-morpholinopyridin-3-yl)amino)-3H-pyrazole-4-carboxamide] | ≥ 50% | < 100 µg/mL | > 2000 µg/mL |  | > 100 µg/mL | > 10 µg/mL | > 1000 µg/mL |  |  |  | > 10000 µg/mL |  | 
6 | NC(=O)C1=C(NCc2ccc(O)cc2)N=NC1Nc1ccc(-c2ccccn2)cc1 (stereo not drawn) [Compound 6, 5-((4-hydroxybenzyl)amino)-3-((4-(pyridin-2-yl)phenyl)amino)-3H-pyrazole-4-carboxamide] | ≥ 50% | < 100 µg/mL |  |  | > 20000 µg/mL | < 500 µg/mL | < 500 µg/mL |  | < 500 µg/mL |  |  | < 200 µg/mL | < 200 µg/mL
7 | CC(C)N1CCN(c2ccc(Nc3n[nH]c(NCc4ccc(O)cc4)c3C(N)=O)cc2)CC1 [Compound 7, 5-((4-hydroxybenzyl)amino)-3-((4-(4-isopropylpiperazin-1-yl)phenyl)amino)-3H-pyrazole-4-carboxamide] | ≥ 50% | < 40 µg/mL | > 500 µg/mL |  | > 1000 µg/mL |  |  |  |  |  |  |  | 
8 | NC(=O)C1=C(NCc2ccc(O)cc2)N=NC1Nc1ccc(-n2ccnc2)cc1 (stereo not drawn) [Compound 8, 3-((4-(1H-imidazol-1-yl)phenyl)amino)-5-((4-hydroxybenzyl)amino)-3H-pyrazole-4-carboxamide] | ≥ 50% | < 40 µg/mL | > 500 µg/mL |  | > 1000 µg/mL |  |  |  |  |  |  |  | 
9 | NC(=O)c1c(Nc2ccc3[nH]ncc3c2)n[nH]c1NCc1ccc(O)cc1 [Compound 9, 3-((1H-indazol-5-yl)amino)-5-((4-hydroxybenzyl)amino)-3H-pyrazole-4-carboxamide] | ≥ 50% | < 40 µg/mL | < 100 µg/mL |  |  |  |  |  |  |  |  |  | 
